Usually IC50 stands for the concentration that inhibits the measured activity by half. By AC50 is commonly meant the concentration at which the activity in the assay is half-maximal.

The source made the active and inactive calls.

This note sets out measurements from ChEMBL document CHEMBL1201862, “PubChem BioAssay data set” (2004).

Experiment [1] has as its target T1, Tyrosine-protein phosphatase non-receptor type 7 (Homo sapiens, UniProt P35236).
T1 sequence (P35236 whole entry): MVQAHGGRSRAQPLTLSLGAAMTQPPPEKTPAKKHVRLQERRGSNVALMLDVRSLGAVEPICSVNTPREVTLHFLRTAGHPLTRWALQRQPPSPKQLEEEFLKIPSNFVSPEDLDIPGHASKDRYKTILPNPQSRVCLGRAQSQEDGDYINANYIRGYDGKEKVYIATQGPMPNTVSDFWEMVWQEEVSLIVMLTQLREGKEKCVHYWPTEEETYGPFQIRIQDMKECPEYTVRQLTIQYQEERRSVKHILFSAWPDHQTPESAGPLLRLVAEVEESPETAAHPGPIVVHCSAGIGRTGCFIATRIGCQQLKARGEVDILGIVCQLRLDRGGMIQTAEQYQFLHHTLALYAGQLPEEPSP
The experiment is described as follows: inhibitors of human HePTP phosphatase, […], biochemical, absorbance, leukemia target (AID 521). The format is functional.

For another experiment, the target named is Large T antigen (Simian virus 40, UniProt P03070). In kind it is functional, Betapolyomavirus macacae.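 Also: Confirmatory-stage PubChem screen for compounds that inhibit SV40 T antigen.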
Chain of Large T antigen (P03070 whole entry): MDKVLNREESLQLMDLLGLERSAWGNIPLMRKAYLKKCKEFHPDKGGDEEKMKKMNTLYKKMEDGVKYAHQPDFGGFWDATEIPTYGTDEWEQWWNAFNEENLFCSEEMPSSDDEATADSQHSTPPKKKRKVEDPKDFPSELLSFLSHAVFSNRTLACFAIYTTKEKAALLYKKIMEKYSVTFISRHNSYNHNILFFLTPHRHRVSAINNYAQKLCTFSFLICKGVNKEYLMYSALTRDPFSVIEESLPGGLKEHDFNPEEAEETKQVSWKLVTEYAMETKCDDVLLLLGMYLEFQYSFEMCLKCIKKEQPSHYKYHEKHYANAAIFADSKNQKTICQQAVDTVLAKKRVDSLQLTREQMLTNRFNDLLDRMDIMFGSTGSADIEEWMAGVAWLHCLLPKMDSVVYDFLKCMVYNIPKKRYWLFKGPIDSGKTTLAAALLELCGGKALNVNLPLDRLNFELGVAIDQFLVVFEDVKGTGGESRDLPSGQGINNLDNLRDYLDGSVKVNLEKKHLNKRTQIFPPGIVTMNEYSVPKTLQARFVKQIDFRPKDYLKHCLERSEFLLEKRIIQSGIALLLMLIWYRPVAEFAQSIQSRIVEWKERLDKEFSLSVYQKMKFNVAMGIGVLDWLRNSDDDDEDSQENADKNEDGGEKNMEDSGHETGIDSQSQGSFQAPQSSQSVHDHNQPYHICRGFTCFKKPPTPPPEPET
The target in experiment [2] is Bifunctional protein GlmU (Mycobacterium tuberculosis, UniProt P9WMN3). Put plainly: Inhibitors of Mycobacterial Glucosamine-1-phosphate acetyl transferase (GlmU). Secondary screen. Details: species or system Mycobacterium tuberculosis H37Rv.
Chain of Bifunctional protein GlmU (P9WMN3 whole entry): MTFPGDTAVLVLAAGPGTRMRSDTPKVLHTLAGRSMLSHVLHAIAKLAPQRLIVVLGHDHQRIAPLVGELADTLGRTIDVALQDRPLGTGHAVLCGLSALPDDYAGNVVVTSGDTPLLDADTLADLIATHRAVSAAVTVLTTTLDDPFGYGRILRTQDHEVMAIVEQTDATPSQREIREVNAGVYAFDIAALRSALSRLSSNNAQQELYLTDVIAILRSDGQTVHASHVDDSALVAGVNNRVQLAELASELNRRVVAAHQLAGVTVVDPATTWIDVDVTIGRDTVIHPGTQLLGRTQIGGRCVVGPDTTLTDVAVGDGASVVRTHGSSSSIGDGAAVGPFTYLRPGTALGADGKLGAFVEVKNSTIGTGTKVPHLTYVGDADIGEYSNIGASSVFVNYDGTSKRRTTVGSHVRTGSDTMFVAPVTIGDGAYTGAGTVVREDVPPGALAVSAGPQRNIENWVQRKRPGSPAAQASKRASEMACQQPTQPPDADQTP
A further experiment concerns the target T2, Caspase-6 (Homo sapiens, UniProt P55212).
T2 sequence (P55212 whole entry): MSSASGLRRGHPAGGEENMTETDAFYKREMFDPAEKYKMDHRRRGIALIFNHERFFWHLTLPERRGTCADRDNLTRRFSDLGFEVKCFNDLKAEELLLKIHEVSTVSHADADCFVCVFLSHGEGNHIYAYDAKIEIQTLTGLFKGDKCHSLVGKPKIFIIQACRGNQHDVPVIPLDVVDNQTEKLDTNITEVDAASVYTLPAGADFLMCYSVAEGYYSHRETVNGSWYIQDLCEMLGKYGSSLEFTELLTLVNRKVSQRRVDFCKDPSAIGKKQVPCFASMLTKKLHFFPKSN
The experiment is described as follows: human caspase-6 inhibitors, dose response, biochemical, VEID-R110 fluorescence, cherry-pick (AID 720632).

For experiment [3], the target named is T3, Histone-lysine N-methyltransferase NSD2 (Homo sapiens, UniProt O96028).
T3 sequence (O96028 whole entry): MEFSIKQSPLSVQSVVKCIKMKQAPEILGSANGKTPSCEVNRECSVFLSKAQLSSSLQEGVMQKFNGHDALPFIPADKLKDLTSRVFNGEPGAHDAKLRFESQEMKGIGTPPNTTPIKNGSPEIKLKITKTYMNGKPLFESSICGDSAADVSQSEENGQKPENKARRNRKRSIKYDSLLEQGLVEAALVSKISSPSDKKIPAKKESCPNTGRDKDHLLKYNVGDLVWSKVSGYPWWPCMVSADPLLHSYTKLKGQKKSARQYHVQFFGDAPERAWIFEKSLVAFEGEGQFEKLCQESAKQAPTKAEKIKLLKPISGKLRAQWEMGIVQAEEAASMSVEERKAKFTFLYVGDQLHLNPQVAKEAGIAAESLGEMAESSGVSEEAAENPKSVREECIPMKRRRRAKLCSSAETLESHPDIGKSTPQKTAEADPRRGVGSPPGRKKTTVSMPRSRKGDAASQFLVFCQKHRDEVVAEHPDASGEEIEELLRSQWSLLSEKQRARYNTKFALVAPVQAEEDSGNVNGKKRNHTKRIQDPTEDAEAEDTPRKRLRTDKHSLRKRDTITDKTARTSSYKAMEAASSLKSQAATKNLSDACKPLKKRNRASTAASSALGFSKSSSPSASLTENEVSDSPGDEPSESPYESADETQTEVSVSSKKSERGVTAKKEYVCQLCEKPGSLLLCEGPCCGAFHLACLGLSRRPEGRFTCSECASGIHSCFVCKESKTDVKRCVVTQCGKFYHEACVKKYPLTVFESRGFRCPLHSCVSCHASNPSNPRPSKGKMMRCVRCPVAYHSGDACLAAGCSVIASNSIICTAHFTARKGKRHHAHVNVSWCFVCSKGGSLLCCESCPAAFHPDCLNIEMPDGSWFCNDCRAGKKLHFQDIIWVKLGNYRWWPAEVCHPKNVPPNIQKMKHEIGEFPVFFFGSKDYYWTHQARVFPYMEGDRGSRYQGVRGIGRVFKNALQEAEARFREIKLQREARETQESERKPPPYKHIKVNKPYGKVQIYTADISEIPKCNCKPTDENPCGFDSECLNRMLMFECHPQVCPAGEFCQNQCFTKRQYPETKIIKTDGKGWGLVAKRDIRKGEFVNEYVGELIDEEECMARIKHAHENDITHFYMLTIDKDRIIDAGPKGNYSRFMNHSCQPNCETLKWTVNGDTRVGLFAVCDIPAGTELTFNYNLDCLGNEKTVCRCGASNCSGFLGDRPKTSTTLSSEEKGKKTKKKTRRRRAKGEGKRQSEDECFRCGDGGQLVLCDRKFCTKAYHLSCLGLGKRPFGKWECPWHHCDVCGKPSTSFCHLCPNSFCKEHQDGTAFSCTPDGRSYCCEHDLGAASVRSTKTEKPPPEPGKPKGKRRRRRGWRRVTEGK
The format is biochemical.

The nature of experiment [4]: M. tuberculosis growth inhibition, HTS (AID 449762). The format is functional.
A short description of experiment [5]: microbe, parasite or virus in culture. In kind it is functional. The conditions noted are these: Mycobacterium tuberculosis.
Experiment [6] concerns the target DNA damage-inducible transcript 3 protein (Mus musculus, UniProt P35639). The format is functional, Cricetulus griseus.
The nature of experiment [7]: HIV-1 Env-mediated cell fusion inhibitors, dose response, CCR5-tropic Env (AID 2279). The format is functional.
Experiment [8] concerns the target Heat shock protein HSP 90-alpha (Homo sapiens, UniProt P07900). Put plainly: Luminescence-based dose response biochemical high throughput screening assay for inhibitors of the Heat Shock Protein 90 (HSP90). [Related pubchem assays: 1831 (Summary AID.), 1846 (Confirmation screen.), 1789 (Primary screen.)].
Experiment [9] deals with FAD-linked sulfhydryl oxidase ALR (Homo sapiens, UniProt P55789). Put plainly: inhibitors of human ALR sulfhydryl oxidase, dose response, biochemical, H2O2 detection, luminescence, cherry-pick (AID 493248).
Chain of FAD-linked sulfhydryl oxidase ALR (P55789 whole entry): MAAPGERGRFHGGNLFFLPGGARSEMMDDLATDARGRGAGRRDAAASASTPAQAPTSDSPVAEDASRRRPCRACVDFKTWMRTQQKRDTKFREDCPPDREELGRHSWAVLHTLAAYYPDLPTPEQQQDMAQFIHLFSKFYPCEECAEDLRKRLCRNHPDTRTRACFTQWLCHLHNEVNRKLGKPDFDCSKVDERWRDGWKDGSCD

Chain of DNA damage-inducible transcript 3 protein (P35639 whole entry, the tested form may be a part): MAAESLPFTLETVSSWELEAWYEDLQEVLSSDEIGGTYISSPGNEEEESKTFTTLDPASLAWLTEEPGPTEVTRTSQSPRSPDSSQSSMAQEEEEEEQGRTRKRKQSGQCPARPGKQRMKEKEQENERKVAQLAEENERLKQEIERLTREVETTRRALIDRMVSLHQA

Regarding `CCOC(=O)COc1ccc(C2NC(C(=O)O)CS2)cc1` (stereo unspecified), in [1], the half-inhibitory concentration (IC50) is listed as > 100 µM (not active).
With `Cc1c(Br)c(=O)oc2c(Br)c(O)c(O)cc12`, the IC50 was 41.2 µM (active) on Large T antigen and 55.4 µM (active) in [2]. The AC50 on Caspase-6 is 19.5 µM (active); in experiment [3], 10.3 µM (active).
Consider `CCOc1ccc(/C=C/C2=Cc3c(sc(NC(=O)CSc4n[nH]c(N)n4)c3C#N)C(C)(C)C2)cc1`, for which, in experiment [4], the IC50 is > 100 µM (active). Besides, the CC50 in [5] is 8.74 µM (active). The “Absolute IC50 (CHOP)” value in experiment [6] was less than 10 µM.
With `COc1cc(/C=N/Nc2ccc(Cl)c(C(=O)O)c2)ccc1OC(=O)c1ccccc1F`, the IC50 was 4.45 µM (active) in experiment [7] and 1.06 µM (active) in [8]. In [9], the AC50 is 5.62 µM (active).
